{
  "source": "patent US12508328B2",
  "about": "“Bio-activated reporters to visualize, in real time, specific gene therapy products” (Northwestern University, priority 2019, dated 2025)",
  "key": {"[1]": {"tested_on": "β-gal enzyme (lacZ)", "conditions": "for MR signal enhancement in lacZ-expressing mice, 1 h post injection: 9.4 T T1 weighted FLASH", "procedure": "In vivo MR Imaging (9.4 T) Hemizygous transgenic mice (n=2) constitutively expressing the lacZ gene that encodes the β-gal enzyme (strain ROSA26-lacZ) were purchased from The Jackson Laboratory (Bar Harbor, ME). A non-transgenic littermate was used as a control. […] Mice were imaged with MRI at baseline, and 1, 4, and 24 hours post injection.\nMRI was performed on a 9.4T Bruker Biospec MRI system with a 30 cm bore, a 12 cm gradient insert, and an Autopac automated sample positioning system (Bruker Biospin Inc, Billerica, MA). Animals were anesthetized in an induction chamber with 3% isoflurane and transferred to a dedicated imaging bed with isoflurane delivered via nosecone at 1-2%. Respiratory signals were monitored using an MR-compatible physiologic monitoring system (SA Instruments, Stonybrook, NY) and a warm water circulating system was used to maintain body temperature. Animals were placed in the prone position and a quadrature radiofrequency coil with inner diameter 40 mm was mounted on the bed. Mice were imaged using a FLASH gradient echo sequence using the following parameters: TR/TE/α=100 ms/2.2 ms/45°, MTX=192×192, FOV 4×4 cm, 9 slices of 1 mm thick, 0.3 mm slice gap, and 1 signal average."}, "[2]": {"assay": "Terbium(III) luminescence: determination of q", "format": "physicochemical", "conditions": "10a′-d′, Horrock's equation; MOPS/CO3^2− buffer pH 7.4", "procedure": "The q number in the absence and presence of CO32− was determined using TbIII analogues (5a′, 5b′, 5c′, and 11′). Given the similarities in chemistry amongst the lanthanides, TbIII luminescence is a convenient and established method for determining the coordination environment in corresponding GdIII chelates. The narrow […] emission at 543 nm and the relatively long lived 0.4 ms excited state lifetime for Tb(H2O)x facilitates accurate assessment of the inner-coordination sphere, differentiating between coordination of OH, OD, NH, and ND oscillators. 38 Luminescent decay curves were fit to the empirically derived Horrock's equation (Eq. 2). It was expected that the ortho position would have the lowest q in the presence of CO32−, creating a “dark” state with the lowest relaxivity.\nThe number of water molecules directly coordinated to the lanthanide center (q), was determined for each of the TbIII analogues 5a′-c′ (see Table 1), 10a′-d′ (Table 2), and 11′ in MilliQ water and MOPS/carbonate buffer (10 mm MOPS, 24 mm NaHCO3, pH 7.4).\nThe monoexponential fluorescence decay of an ≈1 mm solution of each complex was determined using a Hitachi F4500 fluorometer (Schaumburg, IL). An excitation wavelength of 308 nm and an emission wavelength of […] were used, and 25 scans were acquired and averaged for each solution. The averaged data was fit with a monoexponential decay function, and the time constant (t) for each solution was determined in triplicate. The fluorescence decay curves of the complexes were measured in both H2O and D2O, and in both buffer and deuterated buffer, obtained by lyophilizing and re-suspending the buffer in D2O three times (FIG. 17A-E). The q values were calculated using the empirically derived Horrock's equation for Tb(III) (Eq. 2): […]"}, "[3]": {"assay": "Complex stability measured by relaxivity (T1)", "format": "physicochemical"}, "[4]": {"target": "T1, β-gal (Escherichia coli, UniProt P00722)", "T1 sequence (P00722 2-1024)": "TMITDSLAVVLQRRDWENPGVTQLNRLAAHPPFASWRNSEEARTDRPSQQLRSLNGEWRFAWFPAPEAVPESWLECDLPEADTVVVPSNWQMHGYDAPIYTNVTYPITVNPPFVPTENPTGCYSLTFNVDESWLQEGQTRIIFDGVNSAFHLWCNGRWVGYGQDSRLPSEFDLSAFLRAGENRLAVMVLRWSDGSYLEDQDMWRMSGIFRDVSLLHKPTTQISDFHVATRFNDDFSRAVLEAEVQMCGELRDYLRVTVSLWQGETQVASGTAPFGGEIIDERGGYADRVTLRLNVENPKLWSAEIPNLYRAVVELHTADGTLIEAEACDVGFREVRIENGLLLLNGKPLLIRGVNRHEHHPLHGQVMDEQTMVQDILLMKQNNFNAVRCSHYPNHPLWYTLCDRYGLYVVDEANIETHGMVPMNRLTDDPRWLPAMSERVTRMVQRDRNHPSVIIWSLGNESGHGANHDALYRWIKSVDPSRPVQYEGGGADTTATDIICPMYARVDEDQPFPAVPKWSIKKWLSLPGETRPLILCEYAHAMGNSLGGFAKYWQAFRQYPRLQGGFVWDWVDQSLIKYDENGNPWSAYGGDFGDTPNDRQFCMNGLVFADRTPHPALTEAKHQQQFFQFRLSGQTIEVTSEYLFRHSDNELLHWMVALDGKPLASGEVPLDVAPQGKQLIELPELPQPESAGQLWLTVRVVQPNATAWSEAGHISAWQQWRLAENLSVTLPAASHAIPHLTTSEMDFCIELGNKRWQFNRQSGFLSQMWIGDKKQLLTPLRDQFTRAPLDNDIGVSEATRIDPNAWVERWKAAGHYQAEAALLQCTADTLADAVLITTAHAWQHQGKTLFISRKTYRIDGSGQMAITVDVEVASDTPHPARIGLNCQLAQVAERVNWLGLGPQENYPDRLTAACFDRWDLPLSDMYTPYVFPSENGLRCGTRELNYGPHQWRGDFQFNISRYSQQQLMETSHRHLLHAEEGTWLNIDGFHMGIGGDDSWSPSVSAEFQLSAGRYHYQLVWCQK", "conditions": "dark to bright", "excerpt": "The acetate arm is attached to an amine present in the linker between the macrocycle and the galactopyranose substrate."}, "[5]": {"assay": "Relaxivity (1.4 T) in MOPS and MOPS/CO3^2−", "format": "physicochemical", "procedure": "While measurements of q indicate how well an agent can restrict water access to the GdIII center, the most important property for a bio-activated contrast agent is the change in relaxivity upon enzymatic cleavage (r1). To evaluate the signal change in the presence of CO32−, relaxivities of the intermolecular activated agents were measured in two different buffer conditions, the non-coordinating buffer MOPS and MOPS/CO32−.\nT1 relaxation times were obtained for 5a-c (FIG. 13), and complexes 10a-d (FIG. 14), and 11 at 37° C. at 60 MHz (1.4 T) on a Bruker mq60 minispec spectrometer (Billerica, MA). Three 1 mM solutions of each complex were prepared in four different buffer conditions 1) 10 mm 3-(N-morpholino)propanesulfonic acid (MOPS), 100 mm NaCl, pH 7.4, 2) 10 mm MOPS, 24 mm NaHCO3, 100 mm NaCl, pH 7.4, 3) Dulbecco's Phosphate Buffer (DPBS) pH 7.3 Life Technologies, and 4) b-galactosidase enzyme assay buffer, 200 mm sodium phosphate, 100 mm bmercaptoethanol, 2 mm MgCl2, pH 7.3 (FIG. 15). Three sets of five serial dilutions (about 1 mm, 0.5 mm, 0.25 mm, 0.125 mm and 0.0625 mm) were prepared for each complex. T1 relaxation rates were measured using an inversion recovery pule sequence (t1_ir_mb) with a 10 ms first pulse separation, recycle delay and final pulse separation ≥5 T1. T1 relaxation rates were plotted as a function of GdIII concentrations as determined by ICP-MS, r1/r2 was obtained from linear fit of concentration vs. T1 as described in Equation (1)."}, "[6]": {"target": "T1, β-gal", "procedure": "MR images were acquired on a Bruker Pharmscan 7 T imaging spectrometer fitted with shielded gradient coils at 25° C. Image analysis was carried out using Paravision 5.0 p13 software (Bruker, Billerica, MA, USA) with monoexponential curve-fitting of image intensities of selected regions of interest (ROIs) for each axial slice. […] Exact Gd(III) concentration was verified by ICP-MS. Either 10 μL of enzyme stock solution (50% enzyme assay buffer, 50% glycerol, at 521 U/mL β-gal) or 10 μL of a 50% enzyme assay buffer/50% glycerol solution (used as a control) were added to a 190 μL aliquot of each complex. After this addition, the final concentration of each complex was 475 μM, with 26.1 U/mL of β-gal. The solutions were incubated at 37° C. for 24 hours, then aliquoted to 5, ¾″ flame-sealed Pasteur pipets. The bottom sections of the flame-sealed pipets were then scored with a glass scribe, broken into small capillaries, and imaged using a RF RES 300 1H 089/023 quadrature transmit receive 23 mm volume coil (Bruker BioSpin, Billerica, MA, USA). T1 relaxation times were measured using a rapid-acquisition rapid-echo RARE-VTR T1-map pulse sequence with the following imaging parameters: TE (11.0 ms), TR (500.0 ms), field of view (FOV)=25×25 mm2, matrix size (MTX)=256×256, number of axial slices=5, slice thickness (SI)=1.0 mm, and averages (NEX)=3, and total scan time was 2:36:57. T2 values were measured using a multislice multiecho (MSME) T2-map pulse sequence, with static TR (5000 ms) and 32 fitted echoes in 11 ms intervals (11, 22, . . . , 352 ms). Imaging parameters were as follows: FOV=25×25 mm2, MTX=256×256, number of axial slices=4, SI=1.0 mm, NEX=3, and a total scan time=48 min. T1 images and times can be found in FIG. 14 and T2 maps and times can be found in FIG. 18."}, "[7]": {"conditions": "IP 200 microliters of 40 mM, 9.4 T"}},
  "note": "Like-named read-outs stand apart in the source and are kept apart here.",
  "data": [
    {"smiles": "CCOC(=O)CCCCCNc1cc(COC(=O)NCCN2CCN(CC(=O)[O-])CCN(CC(=O)[O-])CCN(CC(=O)[O-])CC2)ccc1O[C@@H]1O[C@H](CO)[C@H](O)[C@H](O)[C@H]1O.[Gd+3]", "note": "[10c, Gadolinium(III)-1-(4-(2-(1-(4,7,10-triscarboxymethyl-(1,4,7,10tetraazacyclododecyl)))ethylcarbamoyloxymethyl)-2-((6-ethoxy-6-oxohexyl)amino)phenyl)-β-D-galactopyranose]", "values": [
      {"measurement": "MR signal enhancement in lacZ-expressing mice, 4 hrs post injection", "setting": "[1]; [7]", "value": "signal enhancement was present but at a reduced level"},
      {"measurement": "MR signal enhancement in non-transgenic control mice", "setting": "[1]; [7]", "value": "No signal enhancement was observed"},
      {"measurement": "MR signal enhancement in lacZ-expressing mice, 1 h post injection", "setting": "[1]; IP 200 microliters of 40 mM", "value": "Global signal enhancement was observed"},
      {"measurement": "MR signal enhancement in lacZ-expressing mice, 1 h post injection", "setting": "[1]; IP 200 microliters of 40 mM, listed as complex 3", "value": "Global signal enhancement was observed"},
      {"measurement": "MR signal enhancement in lacZ-expressing mice, 1 h post injection", "setting": "[1]; IP 200 microliters of 40 mM, listed as β-galactosidase responsive agent", "value": "Signal enhancement was noted in the liver and kidneys"},
      {"measurement": "MR signal enhancement in non-transgenic control mice", "setting": "[1]; IP 200 microliters of 40 mM, 9.4 T, listed as complex 3", "value": "No signal enhancement was observed"},
      {"measurement": "MR signal enhancement in non-transgenic control mice", "setting": "[1]; IP 200 microliters of 40 mM, 9.4 T, listed as β-galactosidase responsive agent", "value": "minimal"},
      {"measurement": "time for MR signal to return to baseline", "setting": "[1]; LacZ mice, IP injection", "value": "≤ 24", "unit": "h"},
      {"measurement": "route of clearance", "setting": "[1]; bladder very bright at 4 hour time point in one LacZ mouse", "value": "cleared renally"},
      {"measurement": "q (buffer)", "setting": "[2]", "value": 0.1},
      {"measurement": "change in T1 over time (stability)", "setting": "[3]; 1 mM in enzyme buffer pH 7.3, over 140 hours", "value": "No significant change in T1"},
      {"measurement": "change in T1 over time (stability) in cell culture media", "setting": "[3]; cell culture media, over 140 hours", "value": "No significant change in T1"},
      {"measurement": "change in relaxivity when exposed to β-gal (post enzyme cleavage)", "setting": "[4]", "value": 90, "unit": "%"},
      {"measurement": "change in signal in the presence of CO3^2−", "setting": "[5]; 10a-d, MOPS/CO3^2−", "value": "highest overall change in signal"},
      {"measurement": "Δr1 relative to the cleaved control product 11", "setting": "[5]; intramolecular series 10a-d, 37° C.", "value": 20, "unit": "%"},
      {"measurement": "T1 signal in the presence of β-gal compared with cleaved agent 11", "setting": "[6]; 7 T solution phantoms, 24 h incubation", "value": "approximately the same"},
      {"measurement": "change in relaxivity", "setting": "[6]; at both 1.4 and 7 T", "value": "positive"}
    ]}
  ]
}
